Patent publication US9040530B2, “1,2,4-triazine-6-carboxamide kinase inhibitors” (Portola Pharmaceuticals, Inc., priority 2012, dated 2015)

Target: T1, full length active recombinant SYK enzyme (Homo sapiens, UniProt P43405)
T1 construct: full length active recombinant SYK enzyme (Millipore, Calif.); purchased Millipore
Assay: Inhibition of Syk tyrosine phosphorylation activity (LANCE TR-FRET kinase assay)
Assay type: biochemical
Settings: 1 nM active SYK enzyme, 550 nM SYK-substrate, 100 μM ATP, 1 hour at room temperature

SMILES | IC50
NC(=O)c1nnc(N[C@@H]2CCCC[C@@H]2N)nc1Nc1ccc([N+]2([O-])CCCCC2)c(F)c1 [Example 32, 1-(4-((3-(((1R,2S)-2-aminocyclohexyl)amino)-6-carbamoyl-1,2,4-triazin-5-yl)amino)-2-fluorophenyl)piperidine 1-oxide] | 10 to 100 nM
CN(C)C(=O)c1ccc(Nc2nc(N[C@@H]3CCCC[C@@H]3N)nnc2C(N)=O)cc1 [Example 62, 3-(((1R,2S)-2-aminocyclohexyl)amino)-5-((4-(dimethylcarbamoyl)phenyl)amino)-1,2,4-triazine-6-carboxamide] | 100 to 1000 nM
CC[C@@H](Nc1nnc(C(N)=O)c(Nc2ccc3ncccc3c2)n1)C(N)=O [Example 51, (R)-3-((1-amino-1-oxobutan-2-yl)amino)-5-(quinolin-6-ylamino)-1,2,4-triazine-6-carboxamide] | 1 to 10 nM
CC[C@@H](Nc1nnc(C(N)=O)c(Nc2ccc(C#N)cc2)n1)C(N)=O [Example 74, (R)-3-((1-amino-1-oxobutan-2-yl)amino)-5-((4-cyanophenyl)amino)-1,2,4-triazine-6-carboxamide] | 100 to 1000 nM
NC(=O)c1nnc(N[C@@H]2CCCC[C@@H]2N)nc1Nc1cccc(-n2cccn2)c1 [Example 6, 5-(3-(1H-pyrazol-1-yl)phenylamino)-3-((1R,2S)-2-aminocyclohexylamino)-1,2,4-triazine-6-carboxamide] | 1 to 10 nM
CC[C@@H](Nc1nnc(C(N)=O)c(Nc2ccc(-n3nccn3)cc2)n1)C(N)=O [Example 98, (R)-5-((4-(2H-1,2,3-triazol-2-yl)phenyl)amino)-3-((1-amino-1-oxobutan-2-yl)amino)-1,2,4-triazine-6-carboxamide] | 10 to 100 nM
NC(=O)c1nnc(N[C@@H]2CCNC2)nc1Nc1cccc(-c2ncccn2)c1 [Example 70, (R)-5-((3-(pyrimidin-2-yl)phenyl)amino)-3-(pyrrolidin-3-ylamino)-1,2,4-triazine-6-carboxamide] | 10 to 100 nM
NC(=O)c1nnc(N[C@@H]2CCCC[C@@H]2N)nc1Nc1cccnc1 [Example 100, 3-(((1R,2S)-2-aminocyclohexyl)amino)-5-(pyridin-3-ylamino)-1,2,4-triazine-6-carboxamide] | 10 to 100 nM

The remaining lines, values ahead:

IC50 | SMILES
> 1000 nM | NC(=O)c1nnc(N[C@@H]2CCCC(F)(F)[C@@H]2N)nc1Nc1cccc(C(F)(F)F)c1 [Example 238, 3-(((1R,2R)-2-amino-3,3-difluorocyclohexyl)amino)-5-((3-(trifluoromethyl)phenyl)amino)-1,2,4-triazine-6-carboxamide]
10 to 100 nM | NC(=O)c1nnc(N[C@@H]2CCOC[C@@H]2N)nc1Nc1ccc(Cl)cc1 [Example 243, 3-(((3R,4R)-3-aminotetrahydro-2H-pyran-4-yl)amino)-5-((4-chlorophenyl)amino)-1,2,4-triazine-6-carboxamide]
10 to 100 nM | Cc1cc(Nc2nc(N[C@H](CC3CC3)C(N)=O)nnc2C(N)=O)sn1 [Example 141, (R)-3-((1-amino-3-cyclopropyl-1-oxopropan-2-yl)amino)-5-((3-methylisothiazol-5-yl)amino)-1,2,4-triazine-6-carboxamide]
10 to 100 nM | Cc1ccc(Nc2nc(N[C@H](Cc3ccc(F)cc3)C(N)=O)nnc2C(N)=O)cc1 [Example 189, (R)-3-(1-amino-3-(4-fluorophenyl)-1-oxopropan-2-ylamino)-5-(p-tolylamino)-1,2,4-triazine-6-carboxamide]
10 to 100 nM | Cc1ccc(Nc2nc(N[C@H](CC(F)(F)F)C(N)=O)nnc2C(N)=O)cc1 [Example 144, (R)-3-((1-amino-4,4,4-trifluoro-1-oxobutan-2-yl)amino)-5-(p-tolylamino)-1,2,4-triazine-6-carboxamide]
10 to 100 nM | NC(=O)c1nnc(N[C@@H]2CCOC[C@@H]2N)nc1Nc1ccc(-c2ncco2)cc1 [Example 253, 3-(((3R,4R)-3-aminotetrahydro-2H-pyran-4-yl)amino)-5-((4-(oxazol-2-yl)phenyl)amino)-1,2,4-triazine-6-carboxamide]
